Numbers after ± are expanded uncertainties.
Assay: molar heat capacity at constant volume; xn = mol fraction of the nth substance listed
Details: x1 = 0.2607

N [ammonia] + O
Details	molar heat capacity at constant volume [J/K/mol]
599.65 K, Fluid (supercritical or subcritical phases), Mass density=312.91 kg/m3, isochoric heat capacity	98.79 ± 4.1
599.65 K, Fluid (supercritical or subcritical phases), Mass density=456.58 kg/m3, isochoric heat capacity	66.45 ± 2.7
599.67 K, Fluid (supercritical or subcritical phases), Mass density=309.95 kg/m3, isochoric heat capacity	126.26 ± 5.3
599.67 K, Liquid, Isochoric heat capacity	126.26 ± 5
599.74 K, Fluid (supercritical or subcritical phases), Mass density=309.95 kg/m3, isochoric heat capacity	122.91 ± 5.2
599.74 K, Fluid (supercritical or subcritical phases), Mass density=311.19 kg/m3, isochoric heat capacity	119.75 ± 5
599.74 K, Fluid (supercritical or subcritical phases), Mass density=312.91 kg/m3, isochoric heat capacity	95.52 ± 4
599.78 K, Fluid (supercritical or subcritical phases), Mass density=308.35 kg/m3, isochoric heat capacity	124.13 ± 5.2
599.78 K, Fluid (supercritical or subcritical phases), Mass density=309.95 kg/m3, isochoric heat capacity	120.4 ± 4.8
599.78 K, Liquid, Isochoric heat capacity	124.13 ± 5
599.82 K, Fluid (supercritical or subcritical phases), Mass density=309.95 kg/m3, isochoric heat capacity	110.51 ± 4.5
599.82 K, Fluid (supercritical or subcritical phases), Mass density=311.19 kg/m3, isochoric heat capacity	114.13 ± 4.7
599.82 K, Fluid (supercritical or subcritical phases), Mass density=456.58 kg/m3, isochoric heat capacity	66.86 ± 2.7
599.89 K, Fluid (supercritical or subcritical phases), Mass density=307.35 kg/m3, isochoric heat capacity	121.11 ± 5.1
599.89 K, Liquid, Isochoric heat capacity	121.11 ± 4.8
599.91 K, Fluid (supercritical or subcritical phases), Mass density=308.35 kg/m3, isochoric heat capacity	117.6 ± 4.9
599.91 K, Fluid (supercritical or subcritical phases), Mass density=309.95 kg/m3, isochoric heat capacity	104.19 ± 4.2
599.99 K, Fluid (supercritical or subcritical phases), Mass density=307.35 kg/m3, isochoric heat capacity	117.17 ± 5
599.99 K, Fluid (supercritical or subcritical phases), Mass density=308.35 kg/m3, isochoric heat capacity	105.88 ± 4.3
599.99 K, Fluid (supercritical or subcritical phases), Mass density=309.95 kg/m3, isochoric heat capacity	102.57 ± 4.2
599.99 K, Fluid (supercritical or subcritical phases), Mass density=312.91 kg/m3, isochoric heat capacity	91.51 ± 3.7
600.02 K, Fluid (supercritical or subcritical phases), Mass density=305.44 kg/m3, isochoric heat capacity	119.52 ± 4.9
600.02 K, Liquid, Isochoric heat capacity	119.52 ± 4.8
600.08 K, Fluid (supercritical or subcritical phases), Mass density=305.44 kg/m3, isochoric heat capacity	116.14 ± 4.8
600.08 K, Fluid (supercritical or subcritical phases), Mass density=307.35 kg/m3, isochoric heat capacity	103.34 ± 4.5
600.08 K, Fluid (supercritical or subcritical phases), Mass density=308.35 kg/m3, isochoric heat capacity	100.97 ± 4.1
600.16 K, Fluid (supercritical or subcritical phases), Mass density=307.35 kg/m3, isochoric heat capacity	101.06 ± 4.3
600.17 K, Fluid (supercritical or subcritical phases), Mass density=303.47 kg/m3, isochoric heat capacity	117.74 ± 4.8
600.17 K, Fluid (supercritical or subcritical phases), Mass density=305.44 kg/m3, isochoric heat capacity	107.85 ± 4.6
600.17 K, Fluid (supercritical or subcritical phases), Mass density=308.35 kg/m3, isochoric heat capacity	93.64 ± 3.8
600.17 K, Liquid, Isochoric heat capacity	118.63 ± 4.7
600.25 K, Fluid (supercritical or subcritical phases), Mass density=303.47 kg/m3, isochoric heat capacity	110.49 ± 4.5
600.25 K, Fluid (supercritical or subcritical phases), Mass density=305.44 kg/m3, isochoric heat capacity	102.54 ± 4.1
600.29 K, Fluid (supercritical or subcritical phases), Mass density=301.94 kg/m3, isochoric heat capacity	117.56 ± 4.8
600.29 K, Liquid, Isochoric heat capacity	117.56 ± 4.7
600.33 K, Fluid (supercritical or subcritical phases), Mass density=301.94 kg/m3, isochoric heat capacity	111.7 ± 4.6
600.34 K, Fluid (supercritical or subcritical phases), Mass density=303.47 kg/m3, isochoric heat capacity	104.01 ± 4.3
600.34 K, Fluid (supercritical or subcritical phases), Mass density=305.44 kg/m3, isochoric heat capacity	105.13 ± 4.2
600.35 K, Fluid (supercritical or subcritical phases), Mass density=309.95 kg/m3, isochoric heat capacity	100.02 ± 4
600.42 K, Fluid (supercritical or subcritical phases), Mass density=303.47 kg/m3, isochoric heat capacity	98.88 ± 4.1
600.42 K, Fluid (supercritical or subcritical phases), Mass density=305.44 kg/m3, isochoric heat capacity	97.9 ± 4

From the NIST ThermoML archive (doi:10.1007/s10765-009-0602-6)
